Each block holds one molecule with its values, some of them ahead of it. Calls of active or inactive are those of the source. The rule behind the calls is not given here.
Key:
[1] = molecular target: T1, Tubulin (Homo sapiens) (UniProt P68371+Q9H4B7+P0DPH7+P68366+Q13509+Q71U36+P04350+Q3ZCM7+P07437+P68363+Q9BQE3+Q6PEY2+Q13885+Q9BVA1+Q9BUF5); assay: Inhibition of tubulin polymerization (unknown origin) at 5 to 10 uM by cell-free tubulin polymerization assay; assay type: protein-complex assay
[2] = test system: HepG2; assay: Disruption of microtubule organization in human HepG2 cells at 100 nM after 12 hrs by DAPI staining-based fluorescence microscopy; assay type: functional, cell-based
[3] = test system: SK-OV-3; assay: Induction of apoptosis in human SKOV3 cells assessed as decrease in pro-caspase-3 protein level at 100 to 1000 nM after 48 hrs by Western blot analysis; assay type: functional, cell-based
[4] = test system: SK-OV-3; assay: Induction of cell cycle arrest in human SKOV3 cells assessed as accumulation at G2 phase at 100 nM after 24 hrs by FCM analysis (reference value: 15.07%); assay type: functional
[5] = test system: SK-OV-3; assay: Antimitotic effect in human SKOV3 cells assessed as decrease in cdc25 level by Western blot analysis; assay type: functional, cell-based
[6] = test system: SK-OV-3; assay: Induction of apoptosis in human SKOV3 cells assessed as decrease in Bcl-2/Bax ratio at 100 to 1000 nM after 48 hrs by Western blot analysis; assay type: functional, cell-based
[7] = molecular target: T1, Tubulin (Homo sapiens); assay: Inhibition of tubulin polymerization (unknown origin) at 5 uM by cell-free tubulin polymerization assay; assay type: protein-complex assay
[8] = test system: SK-OV-3; assay: Antitumor activity against human SKOV3 cells xenografted in BALB/C mouse assessed as mouse survival at 10 mg/kg, iv qd relative to control; assay type: functional, organism-based; design: dose 10 mg/kg
[9] = test system: Serum; assay: Stability of the compound in Wistar rat serum assessed as prodrug degradation after 24 hrs; assay type: ADME, cell-free
[10] = test system: Serum; assay: Stability of the compound in Wistar rat serum assessed as prodrug degradation after 6 hrs; assay type: ADME, cell-free
[11] = Aqueous solubility of the compound; assay type: physicochemical; details: water (aqueous)
[12] = test system: SK-OV-3; assay: Induction of cell cycle arrest in human SKOV3 cells assessed as accumulation at G2 phase at 50 nM after 24 hrs by FCM analysis (reference value: 15.07%); assay type: functional
[13] = test system: SK-OV-3; assay: Antimitotic effect in human SKOV3 cells assessed as decrease in p-cdc2 level by Western blot analysis; assay type: functional, cell-based
[14] = Antitumor activity against human H460 cells xenografted in BALB/C mouse assessed as inhibition ratio at 20 mg/kg, ip qd relative to control; assay type: functional; details: NCI-H460, ip, route intraperitoneal
[15] = Cytotoxicity against human SKOV3 cells assessed as cell viability after 48 hrs by MTT assay; assay type: functional, cell-based; details: SK-OV-3, 48 h
[16] = test system: SK-OV-3; assay: Induction of cell cycle arrest in human SKOV3 cells assessed as accumulation at G1 phase at 500 nM after 24 hrs by FCM analysis (reference value: 60.84%); assay type: functional
[17] = test system: HepG2; assay: Disruption of microtubule organization in human HepG2 cells at 500 nM after 12 hrs by DAPI staining-based fluorescence microscopy; assay type: functional, cell-based
[18] = test system: SK-OV-3; assay: Induction of cell cycle arrest in human SKOV3 cells assessed as accumulation at G1 phase at 100 nM after 24 hrs by FCM analysis (reference value: 60.84%); assay type: functional
[19] = test system: SK-OV-3; assay: Induction of MAPK phosphorylation in human SKOV3 cells at 500 nM after 24 hrs by Western blot analysis; assay type: functional, cell-based
[20] = molecular target: T1, Tubulin (Homo sapiens); assay: Displacement of colchicine from tubulin (unknown origin) after 1 hr by fluorescence based competitive tubulin-binding assay; assay type: protein-complex assay
[21] = test system: SK-OV-3; assay: Induction of cell cycle arrest in human SKOV3 cells assessed as accumulation at G2/M phase at 100 nM after 24 hrs by FCM analysis (reference value: 15.30%); assay type: functional
[22] = test system: SK-OV-3; assay: Induction of cell cycle arrest in human SKOV3 cells assessed as accumulation at G2/M phase after 24 hrs by FCM analysis; assay type: functional, cell-based
[23] = molecular target: T1, Tubulin (Homo sapiens); assay: Inhibition of tubulin polymerization in human SKOV3 cells assessed as increase in polymerized (insoluble) tubulin level at 0.1 to 1 uM after 24 hrs by Western blot analysis; assay type: cell-based; details: SK-OV-3
[24] = test system: SK-OV-3; assay: Induction of cell cycle arrest in human SKOV3 cells assessed as accumulation at S phase at 100 nM after 24 hrs by FCM analysis (reference value: 24.09%); assay type: functional
[25] = test system: SK-OV-3; assay: Antimitotic effect in human SKOV3 cells assessed as decrease in cdc2 level by Western blot analysis; assay type: functional, cell-based
[26] = test system: SK-OV-3; assay: Antimitotic effect in human SKOV3 cells assessed as increase in cyclin B level by Western blot analysis; assay type: functional, cell-based
[27] = Antitumor activity against human SKOV3 cells xenografted in BALB/C mouse assessed as inhibition ratio at 10 mg/kg, iv qd relative to control; assay type: functional; details: SK-OV-3
[28] = Cytotoxicity against human H460 cells assessed as cell viability after 48 hrs by MTT assay; assay type: functional, cell-based; details: NCI-H460, 48 h
[29] = molecular target: T1, Tubulin (Homo sapiens); assay: Inhibition of tubulin polymerization in human SKOV3 cells assessed as increase in depolymerized (soluble) tubulin level at 0.1 to 1 uM after 24 hrs by Western blot analysis; assay type: cell-based; details: SK-OV-3
[30] = test system: SK-OV-3; assay: Induction of cell cycle arrest in human SKOV3 cells assessed as accumulation at G2 phase at 500 nM after 24 hrs by FCM analysis (reference value: 15.07%); assay type: functional
[31] = test system: SK-OV-3; assay: Induction of apoptosis in human SKOV3 cells assessed as PARP cleavage at 100 to 1000 nM after 48 hrs by Western blot analysis; assay type: functional, cell-based
[32] = test system: Rattus norvegicus; assay: Prodrug conversion in rat assessed as 4-(4-ethoxyphenyl)-5-(3,4,5-trimethoxyphenyl)thiazol-2-amine in plasma measured as half life at 10 mg/kg, iv; assay type: ADME, organism-based; design: dose 10 mg/kg, route intravenous; details: in vivo
[33] = test system: SK-OV-3; assay: Induction of apoptosis in human SKOV3 cells assessed as decrease in pro-caspase-9 protein level at 100 to 1000 nM after 48 hrs by Western blot analysis; assay type: functional, cell-based
[34] = test system: SK-OV-3; assay: Induction of cell cycle arrest in human SKOV3 cells assessed as accumulation at G2/M phase at 500 nM after 24 hrs by FCM analysis (reference value: 15.30%); assay type: functional
[35] = test system: SK-OV-3; assay: Induction of cell cycle arrest in human SKOV3 cells assessed as accumulation at S phase at 50 nM after 24 hrs by FCM analysis (reference value: 24.09%); assay type: functional
[36] = test system: NCI-H460; assay: Antitumor activity against human H460 cells xenografted in BALB/C mouse assessed as mouse survival at 20 mg/kg, ip qd relative to control; assay type: functional, organism-based; design: dose 20 mg/kg
[37] = test system: HepG2; assay: Cytotoxicity against human HepG2 cells assessed as cell viability after 48 hrs by MTT assay; assay type: functional, cell-based; details: HepG2, 48 h
[38] = test system: SK-OV-3; assay: Induction of cell cycle arrest in human SKOV3 cells assessed as accumulation at S phase at 500 nM after 24 hrs by FCM analysis (reference value: 24.09%); assay type: functional
[39] = test system: SK-OV-3; assay: Induction of cell cycle arrest in human SKOV3 cells assessed as accumulation at G1 phase at 50 nM after 24 hrs by FCM analysis (reference value: 60.84%); assay type: functional

Structure (SMILES): CCOc1ccc(-c2nc(NC(=O)[C@@H](N)Cc3ccccc3)sc2-c2cc(OC)c(OC)c(OC)c2)cc1.Cl
Drug degradation [9]: 70.21%
Drug degradation [10]: 45.85%
solubility [11]: 436 µM
inhibition in vivo at 20 mg/kg [14]: 46.1%
IC50 [15]: 100 nM
IC50 [28]: > 2000 nM
Activity [36]: Active
IC50 [37]: 90 nM

Structure (SMILES): CCOc1ccc(-c2nc(NC(=O)[C@@H]3CCCN3)sc2-c2cc(OC)c(OC)c(OC)c2)cc1.Cl
Drug degradation [9]: 16.55%
Drug degradation [10]: 12.54%
solubility [11]: 458 µM
inhibition in vivo at 20 mg/kg [14]: 39.4%
IC50 [15]: 80 nM
IC50 [28]: > 2000 nM
Activity [36]: Active
IC50 [37]: 110 nM

Structure (SMILES): CCOc1ccc(-c2nc(NC(=O)[C@@H](N)CCSC)sc2-c2cc(OC)c(OC)c(OC)c2)cc1
IC50 [15]: 380 nM
IC50 [28]: > 2000 nM
IC50 [37]: 520 nM

Second part, led by results:

inhibition [1]: Active
inhibition [7]: Active
Drug degradation [9]: 38.23%
Drug degradation [10]: 12.77%
solubility [11]: > 10000 µM
inhibition [20]: Dose-dependent effect
inhibition [23]: Active
inhibition [29]: Active
t1/2 [32]: 2.93 h
Structure (SMILES): CCOc1ccc(-c2nc(NC(=O)[C@@H](N)C(C)C)sc2-c2cc(OC)c(OC)c(OC)c2)cc1.Cl
Activity [2]: Active
Activity [3]: Active
Activity [4]: 40.71%
inhibition [5]: Active
Activity [6]: Active
Activity [8]: Active
Activity [12]: 10.22%
inhibition [13]: Active
inhibition in vivo at 20 mg/kg [14]: 55%
IC50 [15]: 420 nM
Activity [16]: 1.22%
Activity [17]: Active
Activity [18]: 43.5%
Activity [19]: Active
Activity [21]: 41.4%
Activity [22]: Dose-dependent effect
Activity [24]: 15.49%
inhibition [25]: Active
Activity [26]: Active
inhibition in vivo at 10 mg/kg [27]: 43.1%
IC50 [28]: 200 nM
Activity [30]: 94.51%
Activity [31]: Active
Activity [33]: Active
Activity [34]: 93.1%
Activity [35]: 34.11%
Activity [36]: Active
IC50 [37]: 390 nM
Activity [38]: 3.97%
Activity [39]: 55.67%

Drug degradation [9]: 42.56%
Drug degradation [10]: 39.46%
solubility [11]: 259 µM
Structure (SMILES): CCOc1ccc(-c2nc(NC(=O)C(N)COCc3ccccc3)sc2-c2cc(OC)c(OC)c(OC)c2)cc1.Cl (stereo unspecified)
inhibition in vivo at 20 mg/kg [14]: 44.8%
IC50 [15]: 300 nM
IC50 [28]: > 2000 nM
Activity [36]: Active
IC50 [37]: 470 nM

Drug degradation [9]: 91.1%
Drug degradation [10]: 70.78%
solubility [11]: 554 µM
Structure (SMILES): CCOc1ccc(-c2nc(NC(=O)[C@H](N)CC(C)C)sc2-c2cc(OC)c(OC)c(OC)c2)cc1.Cl
Activity [8]: Active
inhibition in vivo at 20 mg/kg [14]: 52.6%
IC50 [15]: 90 nM
inhibition in vivo at 10 mg/kg [27]: 33.1%
IC50 [28]: 190 nM
Activity [36]: Active
IC50 [37]: 140 nM

— ChEMBL document CHEMBL3425422, “Discovery of a potent microtubule-targeting agent: Synthesis and biological evaluation of water-soluble amino acid prodrug of combretastatin A-4 derivatives” (Bioorg Med Chem Lett, 2015)
